Laboratory results published in patent US12077503B2, “Substituted cyclic amides and their use as herbicides” (FMC CORPORATION, priority 2015, dated 2024).

How the values were obtained:
Type in all cases: in vivo
Kochia (Kochia scoparia) [1] = experiment: Test A preemergence; conditions: Preemergence; for Plant response rating, Kochia: 125 g ai/ha, visual injury after approximately 10 d, 0 to 100 scale where 0 is no effect and 100 is complete control; for Kochia plant response rating (0 to 100 scale, 0 is no effect, 100 is complete control): 500 g ai/ha, visual injury approx. 10 d
Description: (§1) Seeds of plant species selected from barnyardgrass (Echinochloa crus-galli), Kochia (Kochia scoparia), ragweed (common ragweed, Ambrosia elatior), ryegrass, Italian (Italian ryegrass, Lolium multiflorum), crabgrass, large (Digitaria sanguinalis), giant foxtail (Setaria faberii), green foxtail (Setaria viridis), morningglory (Ipomoea spp.), pigweed (Amaranthus retroflexus), velvetleaf (Abutilon theophrasti), wheat (Triticum aestivum), and corn (Zea mays) were planted into a blend of loam soil and sand and treated preemergence with a directed soil spray using test chemicals formulated in anon-phytotoxic solvent mixture which included a surfactant.
(§2) At the same time, plants selected from these crop and weed species and also blackgrass (Alopecurus myosuroides), and Galium (catchweed bedstraw, Galium aparine) were planted in pots containing the same blend of loam soil and sand and treated with postemergence applications of test chemicals formulated in the same manner. Plants ranged in height from 2 to 10 cm and were in the one- to two-leaf stage for the postemergence treatment. Treated plants and untreated controls were maintained in a greenhouse for approximately 10 d, after which time all treated plants were compared to untreated controls and visually evaluated for injury. Plant response ratings, summarized in Table A, are based on a 0 to 100 scale where 0 is no effect and 100 is complete control. A dash (-) response means no test result.

[2] = tested on: barnyardgrass (Echinochloa crus-galli); experiment: Test A preemergence; conditions: Preemergence; for Plant response rating, Barnyardgrass: 125 g ai/ha, visual injury after approximately 10 d, 0 to 100 scale where 0 is no effect and 100 is complete control; for Barnyardgrass plant response rating (0 to 100 scale, 0 is no effect, 100 is complete control): 500 g ai/ha, visual injury approx. 10 d
Description: as §1, §2

[3] = tested on: giant foxtail (Setaria faberii); experiment: Test A preemergence; conditions: Preemergence; for Plant response rating, Foxtail, Giant: 125 g ai/ha, visual injury after approximately 10 d, 0 to 100 scale where 0 is no effect and 100 is complete control; for Foxtail, Giant plant response rating (0 to 100 scale, 0 is no effect, 100 is complete control): 500 g ai/ha, visual injury approx. 10 d
Description: as §1, §2

[4] = tested on: pigweed (Amaranthus retroflexus); experiment: Test A preemergence; conditions: Preemergence; for Plant response rating, Pigweed: 125 g ai/ha, visual injury after approximately 10 d, 0 to 100 scale where 0 is no effect and 100 is complete control; for Pigweed plant response rating (0 to 100 scale, 0 is no effect, 100 is complete control): 500 g ai/ha, visual injury approx. 10 d
Description: as §1, §2

[5] = tested on: ragweed (common ragweed, Ambrosia elatior); experiment: Test A preemergence; conditions: Preemergence; for Plant response rating, Ragweed: 125 g ai/ha, visual injury after approximately 10 d, 0 to 100 scale where 0 is no effect and 100 is complete control; for Ragweed plant response rating (0 to 100 scale, 0 is no effect, 100 is complete control): 500 g ai/ha, visual injury approx. 10 d
Description: as §1, §2

[6] = tested on: ryegrass, Italian (Italian ryegrass, Lolium multiflorum); experiment: Test A preemergence; conditions: Preemergence; for Plant response rating, Ryegrass, Italian: 125 g ai/ha, visual injury after approximately 10 d, 0 to 100 scale where 0 is no effect and 100 is complete control; for Ryegrass, Italian plant response rating (0 to 100 scale, 0 is no effect, 100 is complete control): 500 g ai/ha, visual injury approx. 10 d
Description: as §1, §2

[7] = tested on: Galium (catchweed bedstraw, Galium aparine); experiment: Test A postemergence; conditions: for Galium plant response rating: 125 g ai/ha, postemergence, visual injury rating on 0 to 100 scale (0 no effect, 100 complete control), approx. 10 d; for Plant response rating, Galium: Postemergence, 500 g ai/ha, 0 to 100 scale where 0 is no effect and 100 is complete control
Description: as §1, §2

Kochia (Kochia scoparia) [8] = experiment: Test A postemergence; conditions: for Kochia plant response rating: 125 g ai/ha, postemergence, visual injury rating on 0 to 100 scale (0 no effect, 100 complete control), approx. 10 d; for Plant response rating, Kochia: Postemergence, 500 g ai/ha, 0 to 100 scale where 0 is no effect and 100 is complete control
Description: as §1, §2

[9] = tested on: barnyardgrass (Echinochloa crus-galli); experiment: Test A postemergence; conditions: for Barnyardgrass plant response rating: 125 g ai/ha, postemergence, visual injury rating on 0 to 100 scale (0 no effect, 100 complete control), approx. 10 d; for Plant response rating, Barnyardgrass: Postemergence, 500 g ai/ha, 0 to 100 scale where 0 is no effect and 100 is complete control
Description: as §1, §2

[10] = tested on: blackgrass (Alopecurus myosuroides); experiment: Test A postemergence; conditions: for Blackgrass plant response rating: 125 g ai/ha, postemergence, visual injury rating on 0 to 100 scale (0 no effect, 100 complete control), approx. 10 d; for Plant response rating, Blackgrass: Postemergence, 500 g ai/ha, 0 to 100 scale where 0 is no effect and 100 is complete control
Description: as §1, §2

corn (Zea mays) = experiment: Test A postemergence; conditions: for Corn plant response rating: 125 g ai/ha, postemergence, visual injury rating on 0 to 100 scale (0 no effect, 100 complete control), approx. 10 d; for Plant response rating, Corn: Postemergence, 500 g ai/ha, 0 to 100 scale where 0 is no effect and 100 is complete control
Description: as §1, §2

[11] = tested on: giant foxtail (Setaria faberii); experiment: Test A postemergence; conditions: for Foxtail, Giant plant response rating: 125 g ai/ha, postemergence, visual injury rating on 0 to 100 scale (0 no effect, 100 complete control), approx. 10 d; for Plant response rating, Foxtail, Giant: Postemergence, 500 g ai/ha, 0 to 100 scale where 0 is no effect and 100 is complete control
Description: as §1, §2

[12] = tested on: pigweed (Amaranthus retroflexus); experiment: Test A postemergence; conditions: for Pigweed plant response rating: 125 g ai/ha, postemergence, visual injury rating on 0 to 100 scale (0 no effect, 100 complete control), approx. 10 d; for Plant response rating, Pigweed: Postemergence, 500 g ai/ha, 0 to 100 scale where 0 is no effect and 100 is complete control
Description: as §1, §2

[13] = tested on: ragweed (common ragweed, Ambrosia elatior); experiment: Test A postemergence; conditions: for Ragweed plant response rating: 125 g ai/ha, postemergence, visual injury rating on 0 to 100 scale (0 no effect, 100 complete control), approx. 10 d; for Plant response rating, Ragweed: Postemergence, 500 g ai/ha, 0 to 100 scale where 0 is no effect and 100 is complete control
Description: as §1, §2

[14] = tested on: ryegrass, Italian (Italian ryegrass, Lolium multiflorum); experiment: Test A postemergence; conditions: for Ryegrass, Italian plant response rating: 125 g ai/ha, postemergence, visual injury rating on 0 to 100 scale (0 no effect, 100 complete control), approx. 10 d; for Plant response rating, Ryegrass, Italian: Postemergence, 500 g ai/ha, 0 to 100 scale where 0 is no effect and 100 is complete control
Description: as §1, §2

[15] = tested on: wheat (Triticum aestivum); experiment: Test A postemergence; conditions: for Wheat plant response rating: 125 g ai/ha, postemergence, visual injury rating on 0 to 100 scale (0 no effect, 100 complete control), approx. 10 d; for Plant response rating, Wheat: Postemergence, 500 g ai/ha, 0 to 100 scale where 0 is no effect and 100 is complete control
Description: as §1, §2

[16] = tested on: barnyardgrass (Echinochloa crus-galli); experiment: Test B flooded paddy test; conditions: Flood, 250 g ai/ha; 0 to 100 scale where 0 is no effect and 100 is complete control; 13 to 15 d
Experimental: (§3) Plant species in the flooded paddy test selected from rice (Oryra sativa), sedge, umbrella (small-flower umbrella sedge, Cyperus difformis), ducksalad (Heteranthera limosa), and barnyardgrass (Echinochloa crus-galli) were grown to the 2-leaf stage for testing. At time of treatment, test pots were flooded to 3 cm above the soil surface, treated by application of test compounds directly to the paddy water, and then maintained at that water depth for the duration of the test. Treated plants and controls were maintained in a greenhouse for 13 to 15 d, after which time all species were compared to controls and visually evaluated. Plant response ratings, summarized in Table B, are based on a scale of 0 to 100 where 0 is no effect and 100 is complete control. A dash (-) response means no test result.

[17] = tested on: ducksalad (Heteranthera limosa); experiment: Test B flooded paddy test; conditions: Flood, 250 g ai/ha; 0 to 100 scale where 0 is no effect and 100 is complete control; 13 to 15 d
Experimental: as §3

rice (Oryra sativa) = experiment: Test B flooded paddy test; conditions: Flood, 250 g ai/ha; 0 to 100 scale where 0 is no effect and 100 is complete control; 13 to 15 d
Experimental: as §3

[18] = tested on: sedge, umbrella (small-flower umbrella sedge, Cyperus difformis); experiment: Test B flooded paddy test; conditions: Flood, 250 g ai/ha; 0 to 100 scale where 0 is no effect and 100 is complete control; 13 to 15 d
Experimental: as §3

SMILES	Plant response rating, Kochia (Kochia (Kochia scoparia) [1])	Kochia plant response rating (0 to 100 scale, 0 is no effect, 100 is complete control) (Kochia (Kochia scoparia) [1])	Plant response rating, Barnyardgrass [2]	Barnyardgrass plant response rating (0 to 100 scale, 0 is no effect, 100 is complete control) [2]	Plant response rating, Foxtail, Giant [3]	Foxtail, Giant plant response rating (0 to 100 scale, 0 is no effect, 100 is complete control) [3]	Plant response rating, Pigweed [4]	Pigweed plant response rating (0 to 100 scale, 0 is no effect, 100 is complete control) [4]	Plant response rating, Ragweed [5]	Ragweed plant response rating (0 to 100 scale, 0 is no effect, 100 is complete control) [5]	Plant response rating, Ryegrass, Italian [6]	Ryegrass, Italian plant response rating (0 to 100 scale, 0 is no effect, 100 is complete control) [6]	Galium plant response rating [7]	Plant response rating, Galium [7]	Kochia plant response rating (Kochia (Kochia scoparia) [8])	Plant response rating, Kochia (Kochia (Kochia scoparia) [8])	Barnyardgrass plant response rating [9]	Plant response rating, Barnyardgrass [9]	Blackgrass plant response rating [10]	Plant response rating, Blackgrass [10]	other results
O=C1NCC(c2ccc(C3CC3)cc2)C1C(=O)Nc1cccc(F)c1F (racemic) [Compound 501]	0	30	80	90	80	90	0	20	0	50	0	0	0	0	0	0	50	80	30	40	Corn plant response rating (corn (Zea mays)): 0; Plant response rating, Corn (corn (Zea mays)): 30; Foxtail, Giant plant response rating [11]: 70; Plant response rating, Foxtail, Giant [11]: 80; Pigweed plant response rating [12]: 0; Plant response rating, Pigweed [12]: 0; Ragweed plant response rating [13]: 0; Plant response rating, Ragweed [13]: 0; Ryegrass, Italian plant response rating [14]: 0; Plant response rating, Ryegrass, Italian [14]: 20; Wheat plant response rating [15]: 0; Plant response rating, Wheat [15]: 0; Plant response rating, Barnyardgrass [16]: 20; Plant response rating, Ducksalad [17]: 85; Plant response rating, Rice (rice (Oryra sativa)): 0; Plant response rating, Sedge, Umbrella [18]: 0
Cc1ccc(C2CNC(=O)C2C(=O)Nc2ccc(F)cc2F)c(F)c1 (racemic) [Compound 508]	0	0	70	90	40	70	0	0	0	0	0	0	0	20	0	20	70	90	0	0	Corn plant response rating (corn (Zea mays)): 0; Plant response rating, Corn (corn (Zea mays)): 20; Foxtail, Giant plant response rating [11]: 0; Plant response rating, Foxtail, Giant [11]: 40; Pigweed plant response rating [12]: 0; Plant response rating, Pigweed [12]: 20; Ragweed plant response rating [13]: 0; Plant response rating, Ragweed [13]: 0; Ryegrass, Italian plant response rating [14]: 0; Plant response rating, Ryegrass, Italian [14]: 0; Wheat plant response rating [15]: 0; Plant response rating, Wheat [15]: 20; Plant response rating, Barnyardgrass [16]: 0; Plant response rating, Ducksalad [17]: 50; Plant response rating, Rice (rice (Oryra sativa)): 0; Plant response rating, Sedge, Umbrella [18]: 0
